System: NCI-H1876 complex spheroid growth, % test/control
Assay: Anticancer human tumor NCI-H1876 cell line growth inhibition [Asc];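 also: compound exposure lasted 7 days starting three days after seeding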;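 as to viability, T/C: 100% = DMSO vehicle control wells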
Conditions: for IC50: curve of first compound; for viability, T/C: stronger effect = lower value
Outline: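 Concentration series start at each agent's clinical Cmax, or at 10 microM when none is established, and drop in half-log steps; agents are applied alone or together to complex spheroids built with HUVEC and hMSC.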

[1] = second compound 0.00949 µM, first compound 0.00316 µM
[2] = second compound 0.00949 µM, first compound 0.01 µM
[3] = second compound 0.00949 µM, first compound 0.0316 µM
[4] = second compound 0.00949 µM, first compound 0.1 µM
[5] = second compound 0.03 µM, first compound 0.00316 µM
[6] = second compound 0.03 µM, first compound 0.01 µM
[7] = second compound 0.03 µM, first compound 0.0316 µM
[8] = second compound 0.03 µM, first compound 0.1 µM
[9] = second compound 0.0949 µM, first compound 0.00316 µM
[10] = second compound 0.0949 µM, first compound 0.01 µM
[11] = second compound 0.0949 µM, first compound 0.0316 µM
[12] = second compound 0.0949 µM, first compound 0.1 µM
[13] = second compound 0.3 µM, first compound 0.00316 µM
[14] = second compound 0.3 µM, first compound 0.01 µM
[15] = second compound 0.3 µM, first compound 0.0316 µM
[16] = second compound 0.3 µM, first compound 0.1 µM
[17] = second compound 0.949 µM, first compound 0.00316 µM
[18] = second compound 0.949 µM, first compound 0.01 µM
[19] = second compound 0.949 µM, first compound 0.0316 µM
[20] = second compound 0.949 µM, first compound 0.1 µM
[21] = second compound 3 µM, first compound 0.00316 µM
[22] = second compound 3 µM, first compound 0.01 µM
[23] = second compound 3 µM, first compound 0.0316 µM
[24] = second compound 3 µM, first compound 0.1 µM

COc1c(OCCCN2CCOCC2)ccc2c3n(c(=NC(=O)c4cnc(N)nc4)nc12)CCN3 + CCN1C(C(=O)NC23CCC(C(=O)O)(CC2)CC3)C(c2cccc(Cl)c2F)C2(C(=O)Nc3cc(Cl)ccc32)C12CCCCC2
IC50 (second compound 0.00949 µM): 719 nM
IC50 (second compound 0.03 µM): 741 nM
IC50 (second compound 0.0949 µM): 690 nM
IC50 (second compound 0.3 µM): 718 nM
IC50 (second compound 0.949 µM): 614 nM
IC50 (second compound 3 µM): 543 nM
viability, T/C [1]: 96.8%
viability, T/C [2]: 93.6%
viability, T/C [3]: 101%
viability, T/C [4]: 72.7%
viability, T/C (second compound 0.00949 µM, first compound 0.316 µM): 66.4%
viability, T/C (second compound 0.00949 µM, first compound 1 µM): 44%
viability, T/C [5]: 133%
viability, T/C [6]: 96%
viability, T/C [7]: 94.2%
viability, T/C [8]: 70.6%
viability, T/C (second compound 0.03 µM, first compound 0.316 µM): 59.8%
viability, T/C (second compound 0.03 µM, first compound 1 µM): 45.8%
viability, T/C [9]: 99.3%
viability, T/C [10]: 96.2%
viability, T/C [11]: 90.8%
viability, T/C [12]: 77.5%
viability, T/C (second compound 0.0949 µM, first compound 0.316 µM): 67.3%
viability, T/C (second compound 0.0949 µM, first compound 1 µM): 42.1%
viability, T/C [13]: 96.8%
viability, T/C [14]: 96%
viability, T/C [15]: 93%
viability, T/C [16]: 70.6%
viability, T/C (second compound 0.3 µM, first compound 0.316 µM): 65.9%
viability, T/C (second compound 0.3 µM, first compound 1 µM): 44.1%
viability, T/C [17]: 108%
viability, T/C [18]: 105%
viability, T/C [19]: 92.4%
viability, T/C [20]: 75.4%
viability, T/C (second compound 0.949 µM, first compound 0.316 µM): 58.7%
viability, T/C (second compound 0.949 µM, first compound 1 µM): 43.9%
viability, T/C [21]: 106%
viability, T/C [22]: 103%
viability, T/C [23]: 81.2%
viability, T/C [24]: 80.1%
viability, T/C (second compound 3 µM, first compound 0.316 µM): 64.7%
viability, T/C (second compound 3 µM, first compound 1 µM): 35.7%

NC(=O)C(=Cn1cnc(-c2cc(C(F)(F)F)cc(C(F)(F)F)c2)n1)c1cncnc1 + CCN1C(C(=O)NC23CCC(C(=O)O)(CC2)CC3)C(c2cccc(Cl)c2F)C2(C(=O)Nc3cc(Cl)ccc32)C12CCCCC2
IC50 (second compound 0.00949 µM): > 300 nM
IC50 (second compound 0.03 µM): > 300 nM
IC50 (second compound 0.0949 µM): > 300 nM
IC50 (second compound 0.3 µM): > 300 nM
IC50 (second compound 0.949 µM): > 300 nM
IC50 (second compound 3 µM): > 300 nM
viability, T/C (second compound 0.00949 µM, first compound 0.000949 µM): 104%
viability, T/C (second compound 0.00949 µM, first compound 0.003 µM): 102%
viability, T/C (second compound 0.00949 µM, first compound 0.00949 µM): 115%
viability, T/C (second compound 0.00949 µM, first compound 0.03 µM): 94%
viability, T/C (second compound 0.00949 µM, first compound 0.0949 µM): 100%
viability, T/C (second compound 0.00949 µM, first compound 0.3 µM): 64.8%
viability, T/C (second compound 0.03 µM, first compound 0.000949 µM): 101%
viability, T/C (second compound 0.03 µM, first compound 0.003 µM): 99.3%
viability, T/C (second compound 0.03 µM, first compound 0.00949 µM): 96.6%
viability, T/C (second compound 0.03 µM, first compound 0.03 µM): 101%
viability, T/C (second compound 0.03 µM, first compound 0.0949 µM): 96.2%
viability, T/C (second compound 0.03 µM, first compound 0.3 µM): 63.7%
viability, T/C (second compound 0.0949 µM, first compound 0.000949 µM): 101%
viability, T/C (second compound 0.0949 µM, first compound 0.003 µM): 102%
viability, T/C (second compound 0.0949 µM, first compound 0.00949 µM): 100%
viability, T/C (second compound 0.0949 µM, first compound 0.03 µM): 98.5%
viability, T/C (second compound 0.0949 µM, first compound 0.0949 µM): 102%
viability, T/C (second compound 0.0949 µM, first compound 0.3 µM): 71.2%
viability, T/C (second compound 0.3 µM, first compound 0.000949 µM): 103%
viability, T/C (second compound 0.3 µM, first compound 0.003 µM): 104%
viability, T/C (second compound 0.3 µM, first compound 0.00949 µM): 103%
viability, T/C (second compound 0.3 µM, first compound 0.03 µM): 103%
viability, T/C (second compound 0.3 µM, first compound 0.0949 µM): 105%
viability, T/C (second compound 0.3 µM, first compound 0.3 µM): 69.6%
viability, T/C (second compound 0.949 µM, first compound 0.000949 µM): 124%
viability, T/C (second compound 0.949 µM, first compound 0.003 µM): 104%
viability, T/C (second compound 0.949 µM, first compound 0.00949 µM): 104%
viability, T/C (second compound 0.949 µM, first compound 0.03 µM): 114%
viability, T/C (second compound 0.949 µM, first compound 0.0949 µM): 101%
viability, T/C (second compound 0.949 µM, first compound 0.3 µM): 68.5%
viability, T/C (second compound 3 µM, first compound 0.000949 µM): 109%
viability, T/C (second compound 3 µM, first compound 0.003 µM): 97.4%
viability, T/C (second compound 3 µM, first compound 0.00949 µM): 104%
viability, T/C (second compound 3 µM, first compound 0.03 µM): 94.8%
viability, T/C (second compound 3 µM, first compound 0.0949 µM): 96.1%
viability, T/C (second compound 3 µM, first compound 0.3 µM): 55%

NC1CCC(NC2CC2c2ccccc2)CC1 (stereo unspecified) + CCN1C(C(=O)NC23CCC(C(=O)O)(CC2)CC3)C(c2cccc(Cl)c2F)C2(C(=O)Nc3cc(Cl)ccc32)C12CCCCC2
IC50 (second compound 0.00949 µM): > 100 nM
IC50 (second compound 0.03 µM): > 100 nM
IC50 (second compound 0.0949 µM): > 100 nM
IC50 (second compound 0.3 µM): > 100 nM
IC50 (second compound 0.949 µM): > 100 nM
IC50 (second compound 3 µM): > 100 nM
viability, T/C (second compound 0.00949 µM, first compound 0.000316 µM): 103%
viability, T/C (second compound 0.00949 µM, first compound 0.001 µM): 105%
viability, T/C [1]: 105%
viability, T/C [2]: 113%
viability, T/C [3]: 108%
viability, T/C [4]: 119%
viability, T/C (second compound 0.03 µM, first compound 0.000316 µM): 112%
viability, T/C (second compound 0.03 µM, first compound 0.001 µM): 107%
viability, T/C [5]: 110%
viability, T/C [6]: 117%
viability, T/C [7]: 120%
viability, T/C [8]: 110%
viability, T/C (second compound 0.0949 µM, first compound 0.000316 µM): 106%
viability, T/C (second compound 0.0949 µM, first compound 0.001 µM): 117%
viability, T/C [9]: 113%
viability, T/C [10]: 113%
viability, T/C [11]: 117%
viability, T/C [12]: 112%
viability, T/C (second compound 0.3 µM, first compound 0.000316 µM): 117%
viability, T/C (second compound 0.3 µM, first compound 0.001 µM): 116%
viability, T/C [13]: 123%
viability, T/C [14]: 124%
viability, T/C [15]: 118%
viability, T/C [16]: 108%
viability, T/C (second compound 0.949 µM, first compound 0.000316 µM): 118%
viability, T/C (second compound 0.949 µM, first compound 0.001 µM): 121%
viability, T/C [17]: 134%
viability, T/C [18]: 113%
viability, T/C [19]: 133%
viability, T/C [20]: 116%
viability, T/C (second compound 3 µM, first compound 0.000316 µM): 122%
viability, T/C (second compound 3 µM, first compound 0.001 µM): 112%
viability, T/C [21]: 111%
viability, T/C [22]: 126%
viability, T/C [23]: 125%
viability, T/C [24]: 111%
